Usually IC50 stands for the concentration that gives 50% inhibition.

The test system of data set [1] is cisplatin resistant ovarian cancer cell line A2780 cisR. Kind of data set: MTS in vitro cytotoxicity, A2780 cisR. Format: cell-based, human. The protocol:
(§1) Cells were cultured in the appropriate media. […] In order to retain resistance 1 μM cisplatin was added to the media of the A2780 cisR cells every third passage. A2780 cisR cells are resistant to cisplatin through a combination of decreased uptake, enhanced DNA repair/tolerance, and elevated reduced glutathione levels
(§2) All cells were kept in a humidified atmosphere with 5% CO2 at 37° C.; cells from confluent monolayers were removed from flasks by trypsin/EDTA solution and their viability determined by the trypan blue exclusion test.
(§3) Cell growth was determined by the [3-(4,5-dimethylthiazol-2-yl)-5-(3-carboxymethoxyphenyl)-2-(4-sulfophenyl)-2H-tetrazolium, inner salt, (MTS test, Promega, Southampton, UK), a colorimetric assay based on the ability of the viable cells to reduce a soluble yellow tetrazolium salt to blue formazan. 10,000 ovarian cancer cells or 3,000 fibroblast cells for example were seeded per well onto 96-well plates in 100 μl of the appropriate culture medium. 24 hr after sowing the cells, the media was removed and the cells were treated by adding 100 μl of the compound media solutions at the appropriate concentrations. cis-[Pt(NH3)2(malSAHA−2H)], cisplatin and cis-[Pt(NH3)2(mal)] were prepared freshly in cell culture media. […] The maximum percentage of dmso present in any well was less than 0.1% (v/v). cis-[Pt(NH3)2(malBel—2H)], belinostat and malbelinostat were freshly prepared in dimethyl formamide (DMF) and diluted in culture media prior to the MTS assay. The maximum percentage of DMF present in any well was 0.5% (v/v). A range of concentrations between 1 μM and 100 μM was used.
(§4) After 72 hr of treatment, 20 μl of the MTS reagent was added to each well and the plates incubated for 2 hr at 37° C. […] The percentages of surviving cells relative to untreated controls were determined.

For data set [2], the system named is ovarian cancer cell line A2780 P. Kind of data set: MTS in vitro cytotoxicity, A2780 P. Format: cell-based, human. The protocol: as §1, §2, §3, §4
Data set [3] deals with non-tumorigenic human dermal fibroblast cell line (NHDF). Kind of data set: MTS in vitro cytotoxicity, NHDF. Format: cell-based. The protocol:
In addition Normal Neonatal Human Dermal Fibroblast, NHDF, cells were cultured in Fibroblast Basal Medium (FBM®, Clonetics, Walkersville, USA) supplemented with hFGF-B, insulin, 5% FBS and gentamicin/amphotericin-B (FGM®-2 SingleQuots, Clonetics, Walkersville, USA).
as §2, §3, §4

Data set [4] has as its system DNA in CH1 cells (lymphoma). Kind of data set: Pt binding to DNA in cultured cells (ICP-MS), CH1. Format: cell-based. The note with it: 43 μM of Pt complexes, 2 hours of cell treatment. Here is the method:
(§5) Pt DNA binding of Pt complexes was measured in SW480 cells (colon cancer) and CH1 cells (lymphoma) or alternatively A2780 P and A2780 cisR cells (sensitive and resistant to cisplatin respectively). The cells were seeded in 60 mm tissue culture dishes with 10 ml of their respective medium. After overnight incubation the medium was removed and replaced with 10 ml of the respective medium containing a platinum complex giving a final concentration of 43 or 40 μM depending on the experiment. The cells were incubated with a given Pt complex for either 2 or 4 h depending on the experiment. The cells were trypsinised and centrifuged. The supernantant was removed and the cells washed twice with 1×PBS and centrifuged. The pellet was re-suspended in DNA buffer to which Proteinase K (20 mg/mL) and 10% SDS were added. After a gentle shake and incubation at 45° C. for two hours, RNAse (100 mg/mL) was added and the cells were incubated at 37° C. overnight. The volume of supernatant was noted and an equal volume of phenol was added.
The resulting mixture was shook for 10 min, then centrifuged for 10 min at 10° C. The supernatant was transferred into a new centrifuge tube (15 ml) and the volume was noted. […] The absorbance of the DNA by was measured by UV spectrophotometry at 260 nm and 280 nm and the concentration of DNA calculated. Platinum bound to DNA was determined by ICP-MS.

Data set [5] concerns breast cancer cell line (SKBR). Kind of data set: MTS in vitro cytotoxicity, SKBR. As to conditions: 72 hours, Table 1, read-out: IC50 values against SKBR. Format: cell-based. The protocol:
as §2, §3, §4

The subject of data set [6] is cell line (CH1). Kind of data set: MTS in vitro cytotoxicity, CH1. Format: cell-based. The note with it: 72 hours, Table 1, read-out: IC50 values against CH1. The protocol:
as §2, §3, §4

Data set [7] concerns DNA in SW480 cells (colon cancer). Kind of data set: Pt binding to DNA in cultured cells (ICP-MS), SW480. Format: cell-based. The note with it: 43 μM of Pt complexes, 2 hours of cell treatment. The protocol: as §5
The resulting mixture was shook for 10 min, then centrifuged for 10 min at 10° C. The supernatant was transferred into a new centrifuge tube (15 ml) and the volume was noted. To this was added an equal volume of phenol and chloroform/isoamylalcohol (24:1). The resulting mixture was shook for 10 min, then centrifuged for 10 min at 10° C. (3000 RPM). The supernatant was transferred into a new centrifuge tube (15 mL) and the volume was noted. To this was added an equal volume of chloroform. The resulting mixture was shook for 10 min, then centrifuged for 10 min at 10° C. The supernatant was transferred into a new centrifuge tube (15 mL) and the volume was noted. To this was added a volume that is 1/10 of the supernatant of 3 M sodium acetate (Ph 5.2) and three times the volume of cold 100% isopropanol (from freezer). The solution was shook gently until the DNA is precipitated. […] The absorbance of the DNA by was measured by UV spectrophotometry at 260 nm and 280 nm and the concentration of DNA calculated. Platinum bound to DNA was determined by ICP-MS.

Data set [8] relates to SW480 (colon cancer cells). Kind of data set: Cellular uptake of Pt (FAAS), SW480. Format: cell-based. As to conditions: 10 μM, 72 hours treatment. The protocol:
(§6) Cellular uptake of Pt compounds was measured in SKBR, SW480, A549, A2780P and CH1 cells. The cells were seeded in 60 mm tissue culture dishes with 10 mL of their respective medium and after overnight incubation, the cells were treated with the Pt complexes for 72 h at 10 μM concentration. The cell monolayers at the end of the incubation with the Pt complexes were washed (twice) with ice-cold phosphate buffered saline (PBS), trypsinized and harvested into cold (4° C.) PBS. Cell suspensions were centrifuged and the pellets were stored in PBS at −80° C. until assayed. Afterward, the pellets were digested by high pressure microwave mineralization and Pt content was determined by flameless atomic absorption spectrophotometry (FAAS). The results of cellular Pt uptake were corrected for adsorption effects. All experiments were made in triplicate.^17

The test system of data set [9] is A549 (lung cancer cells). Kind of data set: Cellular uptake of Pt (FAAS), A549. Format: cell-based. As to conditions: 10 μM, 72 hours treatment. Here is the method: as §6
The test system of data set [10] is SKBR (breast cancer cells). Kind of data set: Cellular uptake of Pt (FAAS), SKBR. Format: cell-based. The note with it: 10 μM, 72 hours treatment. Here is the method:
as §6

Data set [11] has as its system lung cancer cell line (A549). Kind of data set: MTS in vitro cytotoxicity, A549. As to conditions: 72 hours, Table 1, read-out: IC50 values against A549. Format: cell-based. The protocol: as §2, §3, §4
Data set [12] has as its system CH1 (cancer cells). Kind of data set: Cellular uptake of Pt (FAAS), CH1. Format: cell-based. As to conditions: 10 μM, 72 hours treatment. Here is the method:
as §6

Data set [13] concerns A2780 P (ovarian cancer cells). Kind of data set: Cellular uptake of Pt (FAAS), A2780 P. Format: cell-based, human. As to conditions: 10 μM, 72 hours treatment. Here is the method:
as §6, with “The cells were seeded in 60 mm tissue culture dishes with 10 mL of their respective medium and after overnight incubation, the cells were treated with the Pt complexes for 72 h at 10 μM concentration.” left out

For data set [14], the system named is liver cell lines (Hep-G2). Kind of data set: MTS in vitro cytotoxicity, Hep-G2. Format: cell-based. The note with it: 72 hours, Table 1, read-out: IC50 values against Hep-G2. Here is the method: as §2, §3, §4
Data set [15] relates to colon cancer cell line (SW480). Kind of data set: MTS in vitro cytotoxicity, SW480. Format: cell-based. As to conditions: 72 hours, Table 1, read-out: IC50 values against SW480. The protocol:
as §2, §3, §4

Data set [16] deals with T1, HDAC1 (Homo sapiens, UniProt Q13547).
T1 construct: purchased Cayman Chemicals, Ann Arbor, USA
Kind of data set: Cayman HDAC1 Inhibitor Screening Assay Kit (fluorescence). Format: biochemical. Here is the method:
The assay provides a fast two-step fluorescence-based method for measuring HDAC activity. Briefly, in the first step an acetylated lysine residue was incubated with HDAC1 and potential inhibitors. Deacetylation sensitises the substrate so that treatment with the HDAC developer in the second step releases a fluorescent product. The fluorescent reaction product was analysed using a plate reader with an excitation wavelengths of 350 nm and emission wavelengths of 460 nm.

Like-named read-outs stand apart in the source and are kept apart here.

T1 sequence (Q13547 whole entry): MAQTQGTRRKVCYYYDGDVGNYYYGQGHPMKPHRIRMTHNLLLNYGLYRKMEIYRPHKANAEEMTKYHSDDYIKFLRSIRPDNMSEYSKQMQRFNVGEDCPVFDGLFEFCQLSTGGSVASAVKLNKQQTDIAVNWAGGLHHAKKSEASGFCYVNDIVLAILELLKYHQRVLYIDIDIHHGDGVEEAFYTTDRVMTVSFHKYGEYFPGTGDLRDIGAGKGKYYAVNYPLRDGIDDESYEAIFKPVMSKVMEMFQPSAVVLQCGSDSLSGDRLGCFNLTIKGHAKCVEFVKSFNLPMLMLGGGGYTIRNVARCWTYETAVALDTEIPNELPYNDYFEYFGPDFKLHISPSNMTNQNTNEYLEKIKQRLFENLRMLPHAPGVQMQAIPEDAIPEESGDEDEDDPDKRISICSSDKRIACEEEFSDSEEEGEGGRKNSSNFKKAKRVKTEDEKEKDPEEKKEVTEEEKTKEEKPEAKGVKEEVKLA

Take `O=C(/C=C/c1cccc(S(=O)(=O)Nc2ccccc2)c1)NO` [belinostat, reference compound]: the IC50 was < 1 µM in data set [1] (Homo sapiens, A2780cisR, 72 h, read-out: IC50 (μM) ± S.E.M. against A2780CisR); < 1 µM in data set [2] (Homo sapiens, A2780, 72 h, read-out: IC50 (μM) ± S.E.M. against A2780P); 3 ± 0.5 µM in data set [3] (Homo sapiens, NHDF, 72 h, read-out: IC50 (μM) ± S.E.M. against NHDF).

As for `[NH2][Pt]1([NH2])[O]C(=O)CC(=O)[O]1` [cis-[Pt(NH3)2(mal)]], in data set [4], the “DNA-bound Pt in CH1” value was 1.76 · 10^−15 moles of Pt/μg of DNA. The IC50 in data set [5] was found to be 14.6 ± 2.5 µM; in data set [6], 2.5 ± 0.5 µM; in data set [1] (72 hours, MTS, Table 1, read-out: IC50 values against A2780cisR), 81 ± 5.8 µM; in data set [2] (72 hours, MTS, Table 1, read-out: IC50 values against A2780 P), 16 ± 4.3 µM; in [11] it was 6.3 µM; in data set [3] (72 hours, MTS, Table 1, read-out: IC50 values against NHDF) it was 48 ± 2.2 µM. Also, the concentration for half-maximal inhibition (IC50) in data set [14] was 44.5 ± 0.9 µM; in [15], 23.2 ± 1.5 µM. Besides, the “DNA-bound Pt in SW480” value in data set [7] was 1.25 · 10^−15 moles of Pt/μg of DNA. The “Uptake of Pt complexes into SW480” value in data set [8] was found to be 127.35 ± 27.4 pmol Pt/2 × 10^6 cell. Also, the “Uptake of Pt complexes into A549” value in data set [9] is reported as 357.1 ± 47.1 pmol Pt/2 × 10^6 cell. In data set [10], the “Uptake of Pt complexes into SKBR” value came to 488.15 ± 38.4 pmol Pt/2 × 10^6 cell. Besides, in data set [12], the “Uptake of Pt complexes into CH1” value is recorded as 282.6 ± 20.6 pmol Pt/2 × 10^6 cell. Besides, the “Uptake of Pt complexes into A2780 P” value in data set [13] is 220.95 ± 10.95 pmol Pt/2 × 10^6 cell.

For `O=C(/C=C/c1ccc(S(=O)(=O)Nc2ccc(CC(C(=O)O)C(=O)O)cc2)cc1)NO` [malBel], the IC50 in data set [1] (72 hours, MTS, Table 5, read-out: IC50 (μM) ± S.E.M. against A2780CisR) was determined as 32.1 µM; in [2] (72 hours, MTS, Table 5, read-out: IC50 (μM) ± S.E.M. against A2780P), 45.8 µM; in data set [3] (72 hours, MTS, Table 5, read-out: IC50 (μM) ± S.E.M. against NHDF), 28.9 µM.

`O=C(CCCCCCC(=O)Nc1ccc(CC(C(=O)O)C(=O)O)cc1)NO` [malSAHA]: in data set [16], the “inhibition of HDAC1 (in words)” value is “inhibit HDAC1”. The same compound came in with a concentration for half-maximal inhibition (IC50) in data set [16] (at 200 μM) of 0.0595 µM.

The record behind these values is US8901337B2, “Metal complexes having dual histone deacetylase inhibitory and DNA-binding activity” (Royal College of Surgeons in Ireland, priority 2009, dated 2014).
